These results are taken from patent US7482124B2, “Method of identifying a PPARgamma-agonist compound having a decreased likelihood of inducing dose-dependent peripheral edema” (Bristol-Myers Squibb Company, priority 2005, dated 2009).

Series [1] concerns human renin gene expression in CALU-6 cells. The series is described as follows: Human renin expression in CALU-6 cells by microarray analysis (Example 8). Format: cell-based. To be noted: CALU-6, 5×EC50, 24 hr, FIGS. 12A-B. The method, then:
As an independent measurement of the renin induction by PPAR agonists observed using RT-PCR (see Example 7 and FIG. 11), four of the experimental treatment groups described under the “Induction Experiments” section in Example 7, were analyzed on AFFYMETRIX® genechips, including; DMSO, Compound A, Compound B, and Compound E. Triplicate samples from each treatment group were analyzed.
All cDNA and cRNA synthesis as well as all hybridizations and subsequent washing steps were performed following the […]® Expression Analysis Technical Manual (Affymetrix). AFFYMETRIX® HG-U133A gene chips were used for all expression profiling studies in this invention.
Micro Array Suite (MAS) 5.0 (Affymetrix) software was used to pre-process all micro-array data. Each treated sample (including DMSO control) was first scaled to an average intensity value of 1500. The data was further analyzed in Excel '97 (Microsoft).
All treated samples were compiled into one Excel spreadsheet such that each compound treated sample (and DMSO control) was aligned for all 22283 genes on the HG-U133A […]®. Gene fold-change values were calculated by dividing the mean signal intensity of each treatment group by the mean signal intensity of the DMSO control. Pair-wise 2-tailed Student's t-tests were performed for each treatment group.

For series [2], the system named is human endothelin-1 gene expression in CALU-6 cells. The series is described as follows: Human endothelin-1 expression profile in CALU-6 cells by quantitative RT-PCR (Example 15). Format: cell-based. The method, then: On account of the involvement of ET-1 in vascular tone maintenance, along with its involvement in numerous cardiovascular disease processes, the possibility that PPAR agonists may contribute to an agonist-induced edema mechanism of action through the modulation of endoethelin-1, was investigated using quantitative RT-PCR. Briefly, gene expression studies were performed using a cell line that was previously shown to express endogenous endothelin mRNA, CALU-6 (Lang et al., 1995).
The human lung carcinoma cell line, CALU-6, was obtained from ATCC®. […]
(§1) Compounds A, B, C, D, and F were synthesized at Bristol-Myers Squibb Co. Compound E was purified by reverse phase high-performance liquid chromatography from commercial pharmaceutical preparations. […] The final concentration of each PPAR-agonist used in the induction studies was 5×EC50 as determined from pre-adipocyte differentiation studies (data not shown). […]
(§2) CALU-6 cells were seeded on day 0 in replicates of six (or twelve for DMSO control), at 5×10^5 cells/well, in 6-well tissue culture plates. […] RNA quantities were determined spectrophotometrically using a SPECTRAMAX® 384 spectrophotometer (Molecular Devices). RNA quality was assessed using an Agilent 2100 Bioanalyzer (Agilent Technologies) following the manufacturer's recommendations. […]

The subject of series [3] is human renin gene expression in CALU-6 cells. The series is described as follows: Human renin expression profile in CALU-6 cells by quantitative RT-PCR (Example 7). The class given is cell-based. The note with it: qRT-PCR, CALU-6, 5×EC50, 24 hr, FIG. 11. How it is done:
Since RAAS plays a fundamental role in fluid volume homeostasis, the possibility that PPAR agonists may contribute to agonist-induced edema mechanism of action through the modulation of other components of this system, specifically renin, was investigated using quantitative RT-PCR. Briefly, gene expression studies were performed using a cell line that was previously shown to express endogenous renin mRNA, CALU-6 (Lang et al., 1995).
The human lung carcinoma cell line, CALU-6, was chosen on account of it being previously shown to endogenously express renin. […]
as §1, §2

Series [4] relates to human endothelin-1 gene expression in CALU-6 cells. The series is described as follows: Endothelin-1 gene expression in CALU-6 cells, quantitative RT-PCR dose-titration. Format: cell-based. The text has this: (§3) Cell line maintenance: CALU-6 cells and growth media were obtained from ATCC® (Manassas, Va.). CALU-6 cells were recovered and expanded in complete growth media (Minimal Essential Media+Earle's Balanced Salt Solution, 1% penicillin/streptomycin, 10% Fetal Bovine Serum). Antibiotics and FBS were purchased from Invitrogen.
(§4) Compounds: Compound A, Compound B, Compound D, Compound C, Compound G, Compound F, Compound H, Compound I, Compound J and Compound K were synthesized at Bristol-Myers Squibb Co. Compound E was purified by reverse phase high-performance liquid chromatography from commercial pharmaceutical preparations. Compounds A, B, F, and G are dual PPAR alpha and gamma agonists; while compounds C, D, and E are single PPAR gamma agonists. Fenofibrate and DMSO were purchased from Sigma. […]
(§5) Quantitative RT-PCR experiments: CALU-6 cells were seeded on day 0 in at 5×10^5 cells/well, in 6-well tissue culture plates. […] RNA quantities were determined spectrophotometrically using a SPECTRAMAX® 384 spectrophotometer (Molecular Devices). […] All data were further analyzed using Microsoft Excel. Fold-change in gene expression upon treatment with compound was expressed as […] ΔCt, where ΔΔCt=(Ctrenin, endothelin-1−CtGAPDH)DMSO−(Ctrenin, endothelin-1−CtGAPDH)treatment. […] Dose-titration experiments were further analyzed using GraphPad Prism Software (GraphPad Inc) to derive EC50 values. […]

Another series deals with diabetics. To be noted: literature (Leff and Reed 2002; Nesto et al. 2003); cited from earlier work.
The test system of series [5] is human renin gene expression in CALU-6 cells. The series is described as follows: Renin gene expression in CALU-6 cells, quantitative RT-PCR dose-titration. The class given is cell-based.
Excerpt: as §3, §4, §5

In the next series the test system is patients. The series can be described thus: Dose-dependent peripheral edema in Phase II clinical trials CV168-006 and CV168-008. Format: in vivo, human. How it is done:
Genomic DNA samples from patients enrolled in two Bristol-Myers Squibb Company Phase II clinical trials CV168-006 and CV168-008 trials were genotyped for 50 SNPs identified in the human renin gene (see Example 1) and evaluated for association with edema.
498 subjects enrolled in the CV168-006 trial and 232 subjects from the CV168-008 trial were analyzed in this study. All analyses were based on data collected up to 24 weeks, which was the duration of the short-term phase of the trials. DNA was extracted from frozen blood by a third-party (Genaissance Inc, North Carolina) using a salting-out method (Gentra Systems). All subjects gave written informed consent.
The association between peripheral edema and the renin single nucleotide polymorphisms of the present invention were investigated by applying statistical analysis to the results of the genotyping assays described elsewhere herein. The central hypothesis of this analysis is that a predisposition to develop dose-dependent peripheral edema may be conferred by specific genomic factors. The analysis attempted to identify one or more of these factors in genomic DNA samples from index cases and matched control subjects who were exposed to Compound A in two Bristol-Myers Squibb (BMS) clinical studies (see Example 2).
Sample. Investigators in the BMS clinical trials diagnosed dose-dependent peripheral edema in some subjects.
Table A provides a distribution of the frequency of dose-dependent peripheral edema by treatment arm.

Where [6] appears, read: Dose E (133 subjects), 40 fold Dose A.

Structures are written as SMILES. Where “and” joins values, the source holds several entries; their conditions need not be identical. Identical values can stand only once.

Regarding `COc1ccc(OC(=O)N(CC(=O)O)Cc2ccc(OCCc3nc(-c4ccccc4)oc3C)cc2)cc1` [COM. A, N-[(4-methoxyphenoxy)carbonyl]-N-[[4-[2-(5-methyl-2-phenyl-4-oxazolyl)ethoxy]phenyl]methyl] glycine], the “human renin expression, fold-change over DMSO treated cells” value in series [1] is listed as “significantly increased”; in series [3] it was “significantly elevate”. Also, the “difference in level of endothelin-1 repression compared to other PPAR agonists studied” value in series [2] (CALU-6, 5×EC50) is “no significant difference”. The “human endothelin-1 expression, fold-change over DMSO treated cells” value in series [2] (qRT-PCR, CALU-6, 5×EC50, 24 hr, FIGS. 16 and 17) is on record as “significantly decrease”. Moreover, the “down-regulation of endothelin-1 gene expression, factor” value in series [4] (CALU-6, qRT-PCR, FIG. 21A) is “four to five”. For the same molecule, it took 18 ± 6.07 nM to reach half-maximal inhibition in series [4] (Homo sapiens, mean ± SEM, endothelin-1 down-regulation, dose-titration experiments (n = 3 to n = 18), CALU-6, 24 hr) (IC50). Further, in the series on diabetics, the “edema in clinical use” value is “acceptable incidence and severity of edema”. Besides, in series [5] (CALU-6, qRT-PCR, FIG. 21A), the “increase of renin mRNA, factor” value is on record as “fifteen to twenty”. The molecule further returned a half-maximal effective concentration (EC50) in series [5] (Homo sapiens, mean ± SEM, renin up-regulation, dose-titration experiments (n = 3 to n = 18), CALU-6, 24 hr) of 96.3 ± 32 nM. In addition, the “Number of edema cases” value was determined as 16 in the series with patients (Dose A (79 subjects)); 14 with patients (Dose B (90 subjects)); 13 with patients (Dose C (125 subjects)); 27 in the series on patients (Dose D (129 subjects)); 54 in the series with patients (setting [6]). For the same molecule, the “edema cases (%)” value was 20% in the series on patients (Dose A (79 subjects)); 16% in the series with patients (Dose B (90 subjects)); 10% with patients (Dose C (125 subjects)); 21% with patients (Dose D (129 subjects)); 40% and 41% with patients (setting [6]). Further, in the series on patients (dose increased from 0.5 mg to 20 mg), the “frequency of edema with dose” value is “frequency of edema increased”.
